Measured values published in ChEMBL document CHEMBL1201862, “PubChem BioAssay data set” (2004).
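In this assay, cells in 96-well plates receive the compound at five concentrations for 48 hours. Endpoints are linearly interpolated between the surrounding concentrations. At the GI50, growth is halved.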 Calls of active or inactive are those of the source. Cut-off read from the data, not from the text of the source: active = GI50 up to about 1.1 µM and inactive = higher.

Columns and labels:
Assay in all cases: DTP human tumour cell line panel, 48 h
SW-620 = system: SW-620
SNB-75 = system: SNB-75
TK-10 = system: TK-10
OVCAR-4 = system: OVCAR-4
SK-MEL-5 = system: SK-MEL-5
K562 = system: K562
NCI-H460 = system: NCI-H460
CAKI-1 = system: CAKI-1
SN12C = system: SN12C
A498 = system: A498
MOLT-4 = system: MOLT-4
LOX IMVI = system: LOX IMVI
OVCAR-5 = system: OVCAR-5
M14 = system: M14
IGROV-1 = system: IGROV-1
OVCAR-3 = system: OVCAR-3
HT-29 = system: HT-29
HCC 2998 = system: HCC 2998
SK-OV-3 = system: SK-OV-3
NCI-H522 = system: NCI-H522

Row | Structure (SMILES) | GI50 (SW-620) | GI50 (SNB-75) | GI50 (TK-10) | GI50 (OVCAR-4) | GI50 (SK-MEL-5) | GI50 (K562) | GI50 (NCI-H460) | GI50 (CAKI-1) | GI50 (SN12C) | GI50 (A498) | GI50 (MOLT-4) | GI50 (LOX IMVI) | GI50 (OVCAR-5) | GI50 (M14) | GI50 (IGROV-1) | GI50 (OVCAR-3) | GI50 (HT-29) | GI50 (HCC 2998) | GI50 (SK-OV-3) | GI50 (NCI-H522)
1 | COc1cc(C2C(C(=O)NCc3ccccc3)=C(C)NC(C)=C2C(=O)NCc2ccccc2)ccc1O | 37.5 µM (inactive) | 44.9 µM (inactive) | 35.2 µM (inactive) | 40.1 µM (inactive) | 59.4 µM (inactive) | 30.8 µM (inactive) | 24.3 µM (inactive) | 24.9 µM (inactive) | 31.5 µM (inactive) | 84.9 µM (inactive) | 20.4 µM (inactive) | 32.6 µM (inactive) | 57.5 µM (inactive) | 34.4 µM (inactive) | 34.4 µM (inactive) | 29.8 µM (inactive) | 21.5 µM (inactive) | 23.6 µM (inactive) |  | 
2 | CCOC(=O)c1csc(NC(=O)CCN2CCCCC2)n1 | > 100 µM (inactive) |  | > 100 µM (inactive) | > 100 µM (inactive) | > 100 µM (inactive) | > 100 µM (inactive) | > 100 µM (inactive) | > 100 µM (inactive) |  | > 100 µM (inactive) | 73.3 µM (inactive) | > 100 µM (inactive) | > 100 µM (inactive) | > 100 µM (inactive) | > 100 µM (inactive) | > 100 µM (inactive) | > 100 µM (inactive) | > 100 µM (inactive) | > 100 µM (inactive) | 
3 | CSC(=N)N1N=C2/C(=C/c3ccccc3)CCC[C@H]2[C@H]1c1ccccc1 | 3.91 µM (inactive) |  | 12.7 µM (inactive) | 2.58 µM (inactive) |  | 1.91 µM (inactive) | 5.68 µM (inactive) |  | 3.92 µM (inactive) | 4.11 µM (inactive) | 2.69 µM (inactive) | 4.19 µM (inactive) | 3.98 µM (inactive) | 3.67 µM (inactive) | 2.12 µM (inactive) | 10.6 µM (inactive) | 2.07 µM (inactive) | 3.27 µM (inactive) | 3.68 µM (inactive) | 4.23 µM (inactive)
4 | COc1cc(C)cc(OC)c1/C=C/C(=O)O | > 100 µM (inactive) |  | > 100 µM (inactive) | > 100 µM (inactive) | > 100 µM (inactive) | > 100 µM (inactive) | > 100 µM (inactive) | > 100 µM (inactive) | > 100 µM (inactive) | > 100 µM (inactive) | > 100 µM (inactive) | > 100 µM (inactive) | > 100 µM (inactive) | > 100 µM (inactive) | > 100 µM (inactive) | 21.5 µM (inactive) | > 100 µM (inactive) | > 100 µM (inactive) |  | > 100 µM (inactive)
5 | O=C1NC2(CCCCC2)C2CCCCC(O)C12 (configuration not stated) | > 100 µM (inactive) | 57.1 µM (inactive) | > 100 µM (inactive) |  |  | > 100 µM (inactive) | > 100 µM (inactive) | > 100 µM (inactive) | > 100 µM (inactive) | > 100 µM (inactive) | > 100 µM (inactive) |  | > 100 µM (inactive) |  | > 100 µM (inactive) | > 100 µM (inactive) | > 100 µM (inactive) | > 100 µM (inactive) |  | 
6 | COc1cc(CO)c(CC(=O)NCCCc2ccccc2)cc1OC | > 100 µM (inactive) | > 100 µM (inactive) | > 100 µM (inactive) | > 100 µM (inactive) | 67.9 µM (inactive) | > 100 µM (inactive) | > 100 µM (inactive) | > 100 µM (inactive) | > 100 µM (inactive) | > 100 µM (inactive) | > 100 µM (inactive) | > 100 µM (inactive) | > 100 µM (inactive) | > 100 µM (inactive) | > 100 µM (inactive) | > 100 µM (inactive) | > 100 µM (inactive) | > 100 µM (inactive) |  | 
7 | BrP(NC1CCCCCC1)(c1ccccc1)(c1ccccc1)c1ccccc1 | 3.09 µM (inactive) |  | 6.58 µM (inactive) |  | 1.59 µM (inactive) | 2.74 µM (inactive) | 1.33 µM (inactive) | 3.98 µM (inactive) | 5.06 µM (inactive) | 0.986 µM (active) |  | 2.36 µM (inactive) | 18 µM (inactive) | 12.4 µM (inactive) | 3.96 µM (inactive) | 3.38 µM (inactive) | 2.1 µM (inactive) | 2.04 µM (inactive) |  | 2.23 µM (inactive)
8 | CCCOC1OC(CS(=O)(=O)O)C(O)C(O)C1O (configuration not stated) | > 100 µM (inactive) | > 100 µM (inactive) | > 100 µM (inactive) | > 100 µM (inactive) | > 100 µM (inactive) | > 100 µM (inactive) | > 100 µM (inactive) | > 100 µM (inactive) | > 100 µM (inactive) | > 100 µM (inactive) | > 100 µM (inactive) | > 100 µM (inactive) | > 100 µM (inactive) | > 100 µM (inactive) | > 100 µM (inactive) | > 100 µM (inactive) | > 100 µM (inactive) | > 100 µM (inactive) | > 100 µM (inactive) | 
